# Columns and labels:
# mosquitoes [1] = test: arm-in-cage method with human research participants, laboratory, complete protection time; format: in vivo; conditions: inverse prediction from model
# adult female mosquitoes = test: human surrogate apparatus 100 (Vitro-Skin skin substitute substrate), laboratory, complete protection time; format: in vivo, Aedes aegypti; conditions: for Predicted percent DEET concentration (±SE): inverse prediction from model; for CPT data with human surrogate apparatus 100 compared with arm-in-cage group: 10% by weight, laboratory
# Description: With reference to FIG. 4, a method of using the human surrogate apparatus 100 is explained.
# In certain embodiments, different test substances contain different concentrations of testing insect repellent. The concentration of testing insect repellent can be measured by weight percentage or by volume percentage of the testing insect repellent diluted in ethanol or in any other suitable diluents. […] Further, in the present embodiment, regardless of the concentration of the repellent, the combined mass of the repellent and ethanol is about 0.19 g. In other experiments, the combined mass of the repellent(s) and the diluent(s) is greater or less than about 0.19 g, but similarly stays the same independent of the concentration of the repellent. With different sets of experiments, the amount of skin-applied test substance used in the testing is based on the size of the substrate and the properties of different testing insect repellents, such as the active ingredient dosage.
# This cycle of exposure-withdrawal-exposure is repeated until one or more biting insects land on the treated substrate for equal to or longer than 2 seconds.
# mosquitoes [2] = test: arm-in-cage method with human research participants, laboratory, complete protection time; format: in vivo
# Description: When comparing the CPT data of skin-applied insect repellents, such as DEET, using the human surrogate apparatus 100 to the CPT data of skin-applied insect repellents obtained using human research participants via the arm-in-cage method (See Product Performance Test Guidelines OPPTS 810.3700: Insect Repellents to be Applied to Human Skin, United States Environmental Protection Agency, EPA 712-10-001, Jul. 7, 2010), data from both groups is very similar to each other as may be seen with reference to FIG. 5 in a controlled environment, e.g., a laboratory. Further, Table 1 illustrates the average CPT for the two methods based on differing weight percentages of the active ingredient DEET of the insect repellent, as well as the […] (“±SE”) at each weight percentage for the two groups. As may be seen, the differences between the experiments using human research participants via the arm-in-cage method and the experiments using the human surrogate apparatus 100 are statistically negligible.
# wild mosquitoes = test: portable human surrogate apparatus 200, outdoor field test, complete protection time; format: in vivo; conditions: for CPT data with human surrogate apparatus 200 compared with voluntary human subjects group: outdoor field test
# Procedure: The human surrogate apparatus of FIG. 1 is intended for use in a laboratory or controlled environment. Preferably, the controlled environment has a temperature range of between about 24° C. to about 30° C. and a range of relative humidity of between about 40% to about 60%. In contrast, FIGS. 2 and 3 illustrate an embodiment of a human surrogate apparatus 200 for testing the efficacy of a skin-applied insect repellent in the field. By fashioning the human surrogate apparatus 200 to be portable, the apparatus may be used in any number of real world environments. The human surrogate apparatus 200 therefore provides the advantage of similar testing efficacy as human testing, but without exposure to mosquitoes or other insects found in the field.
# With reference still to FIGS. 2 and 3, the human surrogate apparatus 200 is disposed in an outdoor environment, with an identified population of biting insects. The portable human surrogate apparatus 200 is provided with a housing 202 having a power supply line 204 connected thereto. In some embodiments, a power supply 206 is located remotely from the housing 202 to provide power to the human surrogate apparatus 200. Alternatively, or in addition, a local power supply is provided within or attached to the housing 202. In such an embodiment, the power supply line 204 may be omitted, provided within the housing 202, or otherwise fashioned differently within the housing 202 to allow energy to reach electrical components thereof
# With reference to FIG. 3, the human surrogate apparatus 200 includes a heater 208 in electrical communication with the power supply 206. In the present embodiment, the heater 208 is a silicone-rubber heating blanket, manufactured by BriskHeat Corporation, Columbus, OH. A non-collagen based, non-biological substrate 210 is also provided and is exposed to the ambient environment. In certain embodiments the non-collagen based, non-biological substrate 210 may be synthetic.
# In the present embodiment, the substrate 210 is securely fastened to the portable human surrogate apparatus 200 by magnetic strips 212, or may be fastened by any other suitable means. In some embodiments a temperature buffering device 214 is provided beneath the substrate 210, which assists in transmitting heat from the heater 208 and maintains the substrate 210 at a predetermined temperature. In the present embodiment, the temperature buffering device 214 is a water bath, enclosed in a container 220, which is made of materials that prevent water leakage and that transmit heat at the same time. Moreover, the portable human surrogate apparatus 200 is connected to a CO2 source 216, which may be remote from the housing 202, attached to the housing 202, or otherwise retained within the housing 202. In the present embodiment, the CO2 source 216 delivers CO2 at a rate of between about 400 mL/min (14 oz/min) to about 600 mL/min (20.3 oz/min).
# It has also been experimentally determined that the human surrogate apparatuses described herein perform consistently in a controlled environment, e.g., a laboratory with predetermined and controllable conditions, and in an uncontrolled environment, e.g., in an outdoor field test. With reference to FIG. 8 and Table 3, the CPT in hours obtained from testing 7% weight percentage DEET repellent efficacy in the laboratory and obtained from the field is similar.
# Similarly, for testing substance picaridin (referring to FIGS. 11A-11C) and PMD (referring to FIGS. 12A-12C), the CPT data (including average CPT) in the human surrogate apparatus 200 group shares overlapping confidence intervals with the CPT data in the field test group using the voluntary human subjects.
# [3] = surface wetting of insect repellent actives on hydrated skin substitute substrate; format: physicochemical; conditions: for surface wetting on skin substitute substrate: ethanol solutions containing 5%, 10%, 15%, and 25% of the active; for surface wetting on hydrated skin substitute substrate: insect repellant active as such
# Description: Additionally, the surface wetting of insect repellents on the skin substitute substrate should be close to the surface wetting of insect repellents on human skin. The term “wetting” refers to the ease with which a substance can intimately contact and spread over a given substrate. There are a variety of forces (ionic, static, polar, van der Waals etc.) acting between the substance and the substrates that ensure good bonding. Good wetting provides a larger area of contact where these forces may act. Consequently, good wetting is crucial for good bond formation. […] Complete wetting is achieved when the contact angle between the liquid and the solid surface is approaching or is substantially zero. […] The interaction of ethanol solutions containing 5%, 10%, 15%, and 25% of each aforementioned active substance and the tested skin substitute substrate was also tested. […] Due to this degree of wetting between the insect repellent active and the tested skin substitute substrate, the desired bonding between the active and the tested skin substitute substrate is achieved. As a result, the insect repellent remains on the skin substitute substrate for a duration similar to that of human skin.
# [4] = 7% DEET in EtOH, Lab, human surrogate apparatus
# [5] = 7% DEET in ethanol, Human Skin Surrogate
# [6] = 15% DEET in ethanol, Human Skin Surrogate
# [7] = 20% DEET in ethanol, Human Skin Surrogate
# [8] = 25% DEET in ethanol, Human Skin Surrogate
# [9] = 30% DEET in ethanol, Human Skin Surrogate
# [10] = 7% DEET in EtOH, Field, human surrogate apparatus
structure (smiles),measurement,setting,value
"CCN(CC)C(=O)c1cccc(C)c1 [DEET, N,N-Diethyl-3-methylbenzamide]",Predicted percent DEET concentration (±SE),mosquitoes [1]; for complete protection time 1 h,1.61 ± 1.69%
same,Predicted percent DEET concentration (±SE),mosquitoes [1]; for complete protection time 2 h,6.15 ± 0.94%
same,Predicted percent DEET concentration (±SE),mosquitoes [1]; for complete protection time 3 h,10.07 ± 0.88%
same,Predicted percent DEET concentration (±SE),mosquitoes [1]; for complete protection time 4 h,14.08 ± 1.15%
same,Predicted percent DEET concentration (±SE),mosquitoes [1]; for complete protection time 5 h,18.70 ± 1.46%
same,Predicted percent DEET concentration (±SE),mosquitoes [1]; for complete protection time 6 h,24.85 ± 2.64%
same,Complete protection time (median),adult female mosquitoes; [4],2.0 h
same,Complete protection time Mean ± SE,adult female mosquitoes; [4],2.2 ± 0.9 h
same,Complete protection time Range,adult female mosquitoes; [4],1.0 to 3.5 h
same,Complete protection time (median),adult female mosquitoes; [5],2.0 h
same,Complete protection time Mean ± SE,adult female mosquitoes; [5],2.2 ± 0.9 h
same,Complete protection time (median),adult female mosquitoes; [6],3.3 h
same,Complete protection time Mean ± SE,adult female mosquitoes; [6],3.6 ± 1.0 h
same,Complete protection time (median),adult female mosquitoes; [7],5.3 h
same,Complete protection time Mean ± SE,adult female mosquitoes; [7],4.9 ± 2.1 h
same,Complete protection time (median),adult female mosquitoes; [8],6.5 h
same,Complete protection time Mean ± SE,adult female mosquitoes; [8],6.3 ± 1.1 h
same,Complete protection time (median),adult female mosquitoes; [9],7.0 h
same,Complete protection time Mean ± SE,adult female mosquitoes; [9],6.5 ± 2.3 h
same,Predicted percent DEET concentration (±SE),"adult female mosquitoes; for complete protection time 1 h, Human Skin Surrogate",3.81 ± 1.72%
same,Predicted percent DEET concentration (±SE),"adult female mosquitoes; for complete protection time 2 h, Human Skin Surrogate",8.17 ± 1.16%
same,Predicted percent DEET concentration (±SE),"adult female mosquitoes; for complete protection time 3 h, Human Skin Surrogate",11.92 ± 1.04%
same,Predicted percent DEET concentration (±SE),"adult female mosquitoes; for complete protection time 4 h, Human Skin Surrogate",15.71 ± 1.13%
same,Predicted percent DEET concentration (±SE),"adult female mosquitoes; for complete protection time 5 h, Human Skin Surrogate",20.00 ± 1.21%
same,Predicted percent DEET concentration (±SE),"adult female mosquitoes; for complete protection time 6 h, Human Skin Surrogate",25.55 ± 1.58%
same,Complete protection time (median),mosquitoes [2]; 7% DEET in ethanol,2.3 h
same,Complete protection time Mean ± SE,mosquitoes [2]; 7% DEET in ethanol,2.5 ± 0.7 h
same,Complete protection time (median),mosquitoes [2]; 15% DEET in ethanol,3.5 h
same,Complete protection time Mean ± SE,mosquitoes [2]; 15% DEET in ethanol,3.9 ± 1.5 h
same,Complete protection time (median),mosquitoes [2]; 20% DEET in ethanol,3.8 h
same,Complete protection time Mean ± SE,mosquitoes [2]; 20% DEET in ethanol,4.9 ± 2.1 h
same,Complete protection time (median),mosquitoes [2]; 25% DEET in ethanol,6.8 h
same,Complete protection time Mean ± SE,mosquitoes [2]; 25% DEET in ethanol,6.5 ± 1.4 h
same,Complete protection time (median),mosquitoes [2]; 30% DEET in ethanol,6.6 h
same,Complete protection time Mean ± SE,mosquitoes [2]; 30% DEET in ethanol,6.6 ± 0.7 h
same,Complete protection time (median),wild mosquitoes; [10],2.0 h
same,Complete protection time Mean ± SE,wild mosquitoes; [10],2.0 ± 0.4 h
same,Complete protection time Range,wild mosquitoes; [10],1.5 to 2.5 h
same,CPT data with human surrogate apparatus 200 compared with voluntary human subjects group,wild mosquitoes,not significantly different
same,surface wetting on skin substitute substrate,[3],substantially complete wetting
same,surface wetting on hydrated skin substitute substrate,[3],substantially complete wetting
"CC1CCC(C(C)(C)O)C(O)C1 (stereo not shown) [PMD, para-menthane-3,8-diol]",CPT data with human surrogate apparatus 100 compared with arm-in-cage group,adult female mosquitoes,not significantly different
same,CPT data with human surrogate apparatus 200 compared with voluntary human subjects group,wild mosquitoes,No statistically significant difference
same,surface wetting on skin substitute substrate,[3],substantially complete wetting
same,surface wetting on hydrated skin substitute substrate,[3],substantially complete wetting
"CCC(C)OC(=O)N1CCCCC1CCO (stereo not shown) [picaridin, 2-(2-hydroxyethyl)-1-piperidinecarboxylic acid 1-methylpropyl ester]",CPT data with human surrogate apparatus 100 compared with arm-in-cage group,adult female mosquitoes,within the range of CPT data points of the group employing the arm-in-cage method
same,CPT data with human surrogate apparatus 200 compared with voluntary human subjects group,wild mosquitoes,No statistically significant difference
same,surface wetting on skin substitute substrate,[3],substantially complete wetting
same,surface wetting on hydrated skin substitute substrate,[3],substantially complete wetting
